PMC7170299, “Design, synthesis, molecular modelling and biological evaluation of novel 3-(2-naphthyl)-1-phenyl-1H-pyrazole derivatives as potent antioxidants and 15-Lipoxygenase inhibitors” (Journal of Enzyme Inhibition and Medicinal Chemistry, 2020)

Assays:
Soybean 15-LOX enzyme = target: T1, Soybean 15-LOX enzyme (Glycine max, UniProt P08170); experiment: In vitro lipoxygenase inhibition (Cayman lipoxygenase inhibitor screening assay kit); format: biochemical; conditions: for IC50: mean ± SEM of three experiments, substrate arachidonic acid; for 15-LOX inhibition potency relative to quercetin: folds that of quercetin
T1 construct: purchased Cayman Chemical 760700
T1 sequence (P08170 1-839): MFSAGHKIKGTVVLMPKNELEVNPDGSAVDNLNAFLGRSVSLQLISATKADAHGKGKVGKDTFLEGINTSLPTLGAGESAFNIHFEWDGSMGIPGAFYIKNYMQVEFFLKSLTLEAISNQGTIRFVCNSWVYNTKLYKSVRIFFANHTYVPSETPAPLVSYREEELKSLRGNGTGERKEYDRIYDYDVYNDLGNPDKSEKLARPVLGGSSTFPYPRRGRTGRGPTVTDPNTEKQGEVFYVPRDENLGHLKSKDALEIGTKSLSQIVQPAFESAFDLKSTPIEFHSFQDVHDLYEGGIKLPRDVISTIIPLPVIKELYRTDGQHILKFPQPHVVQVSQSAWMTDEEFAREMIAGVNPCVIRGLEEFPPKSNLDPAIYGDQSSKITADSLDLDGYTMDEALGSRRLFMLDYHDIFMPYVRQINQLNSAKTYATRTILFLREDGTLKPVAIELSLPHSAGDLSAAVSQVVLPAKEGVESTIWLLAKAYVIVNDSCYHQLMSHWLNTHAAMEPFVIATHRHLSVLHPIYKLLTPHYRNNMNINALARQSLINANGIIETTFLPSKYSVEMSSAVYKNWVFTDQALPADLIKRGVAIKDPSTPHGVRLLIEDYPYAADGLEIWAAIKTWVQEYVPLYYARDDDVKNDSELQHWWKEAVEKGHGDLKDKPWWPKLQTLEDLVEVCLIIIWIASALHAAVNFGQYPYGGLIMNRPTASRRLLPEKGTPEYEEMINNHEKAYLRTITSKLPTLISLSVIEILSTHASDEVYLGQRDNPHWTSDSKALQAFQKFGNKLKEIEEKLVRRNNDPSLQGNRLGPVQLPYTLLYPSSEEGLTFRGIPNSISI
Description: The assay was performed using Cayman’s lipoxygenase inhibitor screening assay kit (Catalog No. 760700, Cayman Chemical, USA) according to the manufacturer’s instructions. Briefly, 90 µL of 15-LOX was pipetted into a 96-well plate. Next, 10 µL of test compound at concentrations (2.5, 5.0 and 10 µM) dissolved in DMSO were added to each well. The reaction was initiated by adding 10 µL substrate (AA) and the plate was placed on a shaker for at least 5 minutes. Finally, 100 µL of chromogen (prepared according to manufacturer’s instructions) was added to each well to stop enzyme catalysis and develop the reaction. 100 µL of Assay buffer (0.1 M Tris-HCl, pH7.4) was used in blank wells. […] The absorbance of the solution was measured at λ 490–500 nm. The percentage inhibition was calculated according to the following equation: % inhibition =[(IA−Ainhibitor sample)/IA]×100 where (IA) is the 100% initial activity and (Ainhibitor sample) is the absorbance of the test sample. Dose–response curve was plotted between % inhibition and the drug concentration. The non-linear dose–response curve was used for calculating drug concentration showing 50% enzyme inhibition.

Row | SMILES | melting point [°C] | IC50 (Soybean 15-LOX enzyme) [nM] | 15-LOX inhibition potency relative to quercetin (Soybean 15-LOX enzyme) [folds]
1 | c1ccc(C2=NNC(c3cn(-c4ccccc4)nc3-c3ccc4ccccc4c3)C2)cc1 (stereo not shown) [Compound 3a, 3′-Naphthalen-2-yl-5,1′-diphenyl-3,4-dihydro-2H,1’H-[3,4′]bipyrazole] | 172 to 173 | 2230 ± 70 | –
2 | Clc1ccc(C2=NN(c3ccccc3)C(c3cn(-c4ccccc4)nc3-c3ccc4ccccc4c3)C2)cc1Cl (stereo not shown) [Compound 4e, 5-(3,4-Dichlorophenyl)-3′-naphthalen-2-yl-2,1′-diphenyl-3,4-dihydro-2H,1’H-[3,4′]-bipyrazole] | 172 to 173 | 3530 ± 70 | –
3 | COc1ccc(C2=NOC(c3cn(-c4ccccc4)nc3-c3ccc4ccccc4c3)C2)cc1 (stereo not shown) [Compound 5b, 3-(4-Methoxyphenyl)-5-(3-naphthalen-2-yl-1-phenyl-1H-pyrazol-4-yl)-4,5-dihydro isoxazole] | 197 to 198 | 4370 ± 90 | –
4 | Cc1ccc(C2=NOC(c3cn(-c4ccccc4)nc3-c3ccc4ccccc4c3)C2)cc1 (stereo not shown) [Compound 5c, 5-(3-Naphthalen-2-yl-1-phenyl-1H-pyrazol-4-yl)-3-p-tolyl-4,5-dihydroisoxazole] | 181 to 182 | 4230 ± 70 | –
5 | NC(=S)N1N=C(c2ccccc2)CC1c1cn(-c2ccccc2)nc1-c1ccc2ccccc2c1 (stereo not shown) [Compound 6a, 3′-Naphthalen-2-yl-5,1′-diphenyl-3,4-dihydro-1’H-[3,4′]bipyrazolyl-2-carbothioic acid amide] | 198 to 199 | 1500 ± 60 | 2.2
6 | Cc1ccc(C2=NN(C(N)=S)C(c3cn(-c4ccccc4)nc3-c3ccc4ccccc4c3)C2)cc1 (stereo not shown) [Compound 6c, 3′-Naphthalen-2-yl-1′-phenyl-5-p-tolyl-3,4-dihydro-1’H-[3,4′]bipyrazolyl-2-carbo thioic acid amide] | 184 to 185 | 2100 ± 60 | –
7 | NC(=S)N1N=C(c2ccc(Cl)c(Cl)c2)CC1c1cn(-c2ccccc2)nc1-c1ccc2ccccc2c1 (stereo not shown) [Compound 6e] | 180 to 181 | 1570 ± 30 | 2.1
